According to US20210127673A1, “HERBICIDES” (SYNGENTA PARTICIPATIONS AG, priority 2016, published 2021):

Key:
Type in all cases: in vivo
Conditions in all cases: 1000 g/ha, evaluated after 13 days
[1] = tested on: Echinochloa crus-galli (ECHCG); test: Pre-emergence herbicidal activity, Echinochloa crus-galli
Experimental: (§1) Seeds of a variety of test species were sown in standard soil in pots: Triticum aestivium (TRZAW), Avena fatua (AVEFA), Alopecurus myosuroides (ALOMY), Echinochloa crus-galli (ECHCG), Lolium perenne (LOLPE), Zea Mays (ZEAMX), Abutilon theophrasti (ABUTH), Amaranthus retroflexus (AMARE) and Setaria faberi (SETFA). After cultivation for one day (pre-emergence) under controlled conditions in a glasshouse (at 24/16° C., day/night; 14 hours light; 65% humidity), the plants were sprayed with an aqueous spray solution derived from the formulation of the technical active ingredient in acetone/water (50:50) solution containing 0.5% Tween 20 (polyoxyethelyene sorbitan monolaurate, CAS RN 9005-64-5). The test plants were then grown in a glasshouse under controlled conditions (at 24/16°, day/night; 14 hours light; 65% humidity) and watered twice daily. After 13 days, the test was evaluated (5=total damage to plant; 0=no damage to plant).

[2] = tested on: Triticum aestivium (TRZAW); test: Pre-emergence herbicidal activity, Triticum aestivium; design: key: 5=total damage to plant; 0=no damage to plant
Experimental: as §1

Lolium perenne (LOLPE) [3] = test: Post-emergence herbicidal activity, Lolium perenne
Experimental: (§2) Seeds of a variety of test species were sown in standard soil in pots: Triticum aestivium (TRZAW), Avena fatua (AVEFA), Alopecurus myosuroides (ALOMY), Echinochloa crus-galli (ECHCG), Lolium perenne (LOLPE), Zea Mays (ZEAMX), Abutilon theophrasti (ABUTH), Amaranthus retroflexus (AMARE) and Setaria faberi (SETFA). After 8 days cultivation (post-emergence) under controlled conditions in a glasshouse (at 24/16° C., day/night; 14 hours light; 65% humidity), the plants were sprayed with an aqueous spray solution derived from the formulation of the technical active ingredient in acetone/water (50:50) solution containing 0.5% Tween 20 (polyoxyethelyene sorbitan monolaurate, CAS RN 9005-64-5). The test plants were then grown in a glasshouse under controlled conditions (at 24/16° C., day/night; 14 hours light; 65% humidity) and watered twice daily. After 13 days, the test was evaluated (5=total damage to plant; 0=no damage to plant).

Setaria faberi (SETFA) [4] = test: Pre-emergence herbicidal activity, Setaria faberi; design: key: 5=total damage to plant; 0=no damage to plant
Experimental: as §1

Avena fatua (AVEFA) [5] = test: Post-emergence herbicidal activity, Avena fatua
Experimental: as §2

Avena fatua (AVEFA) [6] = test: Pre-emergence herbicidal activity, Avena fatua
Experimental: as §1

Lolium perenne (LOLPE) [7] = test: Pre-emergence herbicidal activity, Lolium perenne; design: key: 5=total damage to plant; 0=no damage to plant
Experimental: as §1

[8] = tested on: Triticum aestivium (TRZAW); test: Post-emergence herbicidal activity, Triticum aestivium; design: key: 5=total damage to plant; 0=no damage to plant
Experimental: as §2

[9] = tested on: Alopecurus myosuroides (ALOMY); test: Pre-emergence herbicidal activity, Alopecurus myosuroides; design: key: 5=total damage to plant; 0=no damage to plant
Experimental: as §1

Setaria faberi (SETFA) [10] = test: Post-emergence herbicidal activity, Setaria faberi; design: key: 5=total damage to plant; 0=no damage to plant
Experimental: as §2

[11] = tested on: Alopecurus myosuroides (ALOMY); test: Post-emergence herbicidal activity, Alopecurus myosuroides; design: key: 5=total damage to plant; 0=no damage to plant
Experimental: as §2

[12] = tested on: Echinochloa crus-galli (ECHCG); test: Post-emergence herbicidal activity, Echinochloa crus-galli; design: key: 5=total damage to plant; 0=no damage to plant
Experimental: as §2

Compound: C#CCNC(=O)Nc1ccc(-c2cncc(F)c2)nc1C(F)(F)F [Compound B41]
- Control of ECHCG after pre-emergence application (score 0-5) [1]: 4
- Control of TRAZW after pre-emergence application (score 0-5) [2]: 0
- Control of LOLPE after post-emergence application (score 0-5) (Lolium perenne (LOLPE) [3]): 2
- Control of SETFA after pre-emergence application (score 0-5) (Setaria faberi (SETFA) [4]): 5
- Control of AVEFA after post-emergence application (score 0-5) (Avena fatua (AVEFA) [5]): 3
- Control of AVEFA after pre-emergence application (score 0-5) (Avena fatua (AVEFA) [6]): 1
- Control of LOLPE after pre-emergence application (score 0-5) (Lolium perenne (LOLPE) [7]): 1
- Control of TRAZW after post-emergence application (score 0-5) [8]: 0
- Control of ALOMY after pre-emergence application (score 0-5) [9]: 0
- Control of SETFA after post-emergence application (score 0-5) (Setaria faberi (SETFA) [10]): 5
- Control of ALOMY after post-emergence application (score 0-5) [11]: 0
- Control of ECHCG after post-emergence application (score 0-5) [12]: 4

Compound: O=C(Nc1ccc(-c2cncc(F)c2)nc1C(F)(F)F)N1CC[S+]([O-])C1 (stereo not drawn) [Compound B117, N-[6-(5-fluoro-3-pyridyl)-2-(trifluoromethyl)-3-pyridyl]-1-oxo-1,3-thiazolidine-3-carboxamide]
- Control of ECHCG after pre-emergence application (score 0-5) [1]: 4
- Control of TRAZW after pre-emergence application (score 0-5) [2]: 0
- Control of LOLPE after post-emergence application (score 0-5) (Lolium perenne (LOLPE) [3]): 4
- Control of SETFA after pre-emergence application (score 0-5) (Setaria faberi (SETFA) [4]): 5
- Control of AVEFA after post-emergence application (score 0-5) (Avena fatua (AVEFA) [5]): 4
- Control of AVEFA after pre-emergence application (score 0-5) (Avena fatua (AVEFA) [6]): 3
- Control of LOLPE after pre-emergence application (score 0-5) (Lolium perenne (LOLPE) [7]): 1
- Control of TRAZW after post-emergence application (score 0-5) [8]: 3
- Control of ALOMY after pre-emergence application (score 0-5) [9]: 0
- Control of SETFA after post-emergence application (score 0-5) (Setaria faberi (SETFA) [10]): 5
- Control of ALOMY after post-emergence application (score 0-5) [11]: 1
- Control of ECHCG after post-emergence application (score 0-5) [12]: 5

Compound: CCC(C)OC(=O)Nc1ccc(-c2cncc(F)c2)nc1C(F)(F)F (stereo not drawn) [Compound B56]
- Control of ECHCG after pre-emergence application (score 0-5) [1]: 1
- Control of TRAZW after pre-emergence application (score 0-5) [2]: 0
- Control of LOLPE after post-emergence application (score 0-5) (Lolium perenne (LOLPE) [3]): 3
- Control of SETFA after pre-emergence application (score 0-5) (Setaria faberi (SETFA) [4]): 2
- Control of AVEFA after post-emergence application (score 0-5) (Avena fatua (AVEFA) [5]): 3
- Control of AVEFA after pre-emergence application (score 0-5) (Avena fatua (AVEFA) [6]): 1
- Control of LOLPE after pre-emergence application (score 0-5) (Lolium perenne (LOLPE) [7]): 0
- Control of TRAZW after post-emergence application (score 0-5) [8]: 0
- Control of ALOMY after pre-emergence application (score 0-5) [9]: 0
- Control of SETFA after post-emergence application (score 0-5) (Setaria faberi (SETFA) [10]): 4
- Control of ALOMY after post-emergence application (score 0-5) [11]: 0
- Control of ECHCG after post-emergence application (score 0-5) [12]: 4

Compound: O=C(Nc1ccc(-c2cncc(F)c2)nc1C(F)(F)F)OCC(F)(F)F [Compound B57]
- Control of ECHCG after pre-emergence application (score 0-5) [1]: 2
- Control of TRAZW after pre-emergence application (score 0-5) [2]: 0
- Control of LOLPE after post-emergence application (score 0-5) (Lolium perenne (LOLPE) [3]): 2
- Control of SETFA after pre-emergence application (score 0-5) (Setaria faberi (SETFA) [4]): 3
- Control of AVEFA after post-emergence application (score 0-5) (Avena fatua (AVEFA) [5]): 3
- Control of AVEFA after pre-emergence application (score 0-5) (Avena fatua (AVEFA) [6]): 1
- Control of LOLPE after pre-emergence application (score 0-5) (Lolium perenne (LOLPE) [7]): 1
- Control of TRAZW after post-emergence application (score 0-5) [8]: 0
- Control of ALOMY after pre-emergence application (score 0-5) [9]: 0
- Control of SETFA after post-emergence application (score 0-5) (Setaria faberi (SETFA) [10]): 3
- Control of ALOMY after post-emergence application (score 0-5) [11]: 0
- Control of ECHCG after post-emergence application (score 0-5) [12]: 4
